“And” between values parts separate entries of the source, which are not always exact repeats. Equal entries are not always repeated.
What was measured:
[1] = test system: animals subject to hyperbaric oxygen; conditions: reported by Bondarenko; cited from earlier work
[2] = test system: carnosinase; conditions: compared with the parent compound carnosine; Boldyrev 2000; cited from earlier work
[3] = test system: rat model genetically predisposed to audiogenic epilepsy; conditions: carnosine injected prior to acoustic stress; Stvolinsky and Dobrota 2000; cited from earlier work
[4] = test system: animals; conditions: both decreasing mortality and improving recovery; Stvolinsky and Dobrota 2000; cited from earlier work
[5] = test system: patients with autism, pervasive developmental disorder, brain injury, cerebral palsy and epilepsy; assay: Carnosine dietary supplement to improve cognitive functions impaired by neurological disorders (Example 2); type: in vivo, human; conditions: carnosine 200 mg to 2,000 mg per day, orally
Procedure: It is hypothesized that carnosine may improve cognitive functions of patients suffering from various disorders. These disorders include autism, pervasive developmental disorder, brain injury, cerebral palsy and epilepsy. There are currently no drugs or treatments available whose primary function is to elevate carnosine levels as a treatment for the previously mentioned disorders. Patients afflicted with the above disorders were treated with a dietary supplement of carnosine in dosages of 200 mg to 2,000 mg per day. The carnosine supplement is available in gel capsule form from Alfa Chem (Kings Point, N.Y.).
The carnosine supplement can be administered orally several times daily. The results indicated an increase in cognitive processing speed, an increase in language skills, and improved motor skills. Patients have increased their amount of speech and language and the level of maturity of speech.

[6] = test system: adult clinical trials; conditions: among 691 cases of adult clinical trials; Matsukura and Tanaka 2000; cited from earlier work
[7] = test system: children with intractable seizures; assay: L-carnosine add-on therapy in children with intractable seizures, EEG and seizure frequency (Example 3); type: in vivo, human; conditions: after 10 weeks at 400 mg p.o. b.i.d.
From the text: L-carnosine is an amino acid dipeptide (histidine and alanine), that may indirectly affect spike and wave discharges by altering GABA bioavailability or affecting copper and zinc influx at the cellular level. […] We hypothesized that carnosine ingestion would modulate homocarnosine in the brain, causing spike and wave activity to decrease and seizure control to improve. We gave L-carnosine to four patents as add-on therapy for intractable spike-wave discharge and documented changes in both clinical (overt seizures) and physiological (EEG) status.
Seven children (3 female, 4 male, age range 2-12) met inclusion criteria. All had intractable seizures for at least two years, had failed at least 3 anticonvulsants, had documented, abnormal generalized or secondarily generalized spike-wave, atypical absence, or Lennox-Gastaut Syndrome. All families signed written consent from an IRB approved protocol. All children were evaluated with a Baseline EEG on the same day they were started on 400 mg b.i.d. of L-carnosine. Carnosine from, for example, Alfa Chem in either powder or capsule form. Carnosine may also be obtained from MAYPRO (Purchase, N.Y.), as well as various other suppliers. Post-treatment EEG was undertaken after 10 weeks of L-carnosine therapy. No other concurrent medications were changed. All patients had failed multiple medication treatments prior to the addition of carnosine. These medications included valproic acid, topimirate, benzodiazepines, steroids, carbamazepine, phenytoin, zonisamide, lamotrigine, and phenobarbital.

[8] = test system: children with Autistic Spectrum Disorder; assay: 8 week double-blind placebo-controlled carnosine study in children with Autistic Spectrum Disorder (Example 4); type: in vivo, human; conditions: for Fax ratings (week 2 vs. week 6): on carnosine 400 mg twice a day, Mean (SD)
From the text: The following protocol was designed to target the purported brain region of dysfunction in ASD, via supplementation with a naturally-occurring amino acid which is believed to act upon frontal lobe systems or GABA receptors. We sought to eliminate the “expectancy effect” of medication augmentation by enrolling children in a study so that both the clinicians and parents were blinded to group assignment.
Children were included for study if they met the following criteria: ages 3-12, prior diagnoses of Autistic Spectrum Disorder (including either Pervasive Developmental Disorder or Autistic Disorder, by DSMIVR). American Psychiatric Association. Diagnostic and Statistical Manual of Mental Disorders, 4th ed. Washington D.C., 1993. […] Children were enrolled in the study irrespective of cognitive ability level.
All children were tested at baseline in the following domains: expressive language (Expressive One Word Picture Vocabulary test, EOWPVT), receptive language (Receptive One Word Picture Vocabulary test, ROWPVT), autism severity ratings (Childhood Autism Rating Scale; CARS, and Gilliam Autism Rating Scales; GARS), and Clinical Global linpresssions (CGI) completed by parents. At baseline and eight-week testing, all children underwent the CARS, GARS, EOWPVT, ROWPVT, and CGI. Schopler, E., Reichler, R. J., Renner, B. R. The Childhood Autism Rating Scale: CARS. Los Angeles, Calif.: Western Psychological Sciences 1988. Gilliam, J. E. The Gilliam Autism Rating Scale: GARS. Austin, Tex.: Pro-Ed Inc. 1995. Gardner, M. F. Receptive One-Word Picture Vocabulary Test: ROWPVT. Novato, Calif.: Academic Therapy Publications 1985. Gardner, M. F. Expressive One-Word Picture Vocabulary Test (Revised): EOWPVT-R. Novato, Calif.: Academeic Therapy Publication 1990. Children were tested with their parents in the room of a pediatric neurology clinic in a room dedicated to assessment. Parents signed informed written consent (approved by the Lake Forest Hospital Institutional Review Board) before being randomly assigned to either active agent or placebo, and reporting of adverse events was explained per office emergency policy. Because of our prior experience with the substance in an open-label format, we were able to caution regarding the following potential adverse events: hyperactivity, excitability
Both placebo and active substance were identical in powdered appearance, without taste or smell. All pills were contained by a gelatin capsule; parents were instructed to mix the powder with either food or drink. Dosage of carnosine was 400 mg by mouth twice a day.
Every two weeks, parents faxed a CGI regarding their child. The CGI was a 5 point rating scale covering the following domains: (1) Socialization, interaction with others during play, (2) Spontaneous, expressive language or vocalizations, (3) Attention span, “focus”/eye contact, alertness level, (4) Agitation and hyperactivity or lethargy, energy level, Petroff, O. A. C. et al., Neurology 2001; 56:709-715. Coordination, body use, gross motor movements, (6) Anxiety, rigidity, preservation, adaptation to change. A score of “0” indicated “No Change”, a score of “5” indicated a “Great improvement.” Parents were not allowed to refer back to faxes from the prior two week period, so that each rating was essentially “blinded” to the week before. An overall baseline CGI was then compared with an ending CGI.
Thirty-one children (21 M, mean age=7.45; range 3.2-12.5) meeting inclusion criteria were enrolled in an 8 week, double-blind placebo-controlled study. Children were entered randomly into one of two groups: Group I (n=17) received a placebo for the first 8 weeks, while Group II (n=14) received the active substance. Children were assessed at Baseline in the following domains: […]

[9] = 8-Week on carnosine 400 mg twice a day, n = 14, Mean (SD), vs baseline .01, vs placebo NS
[10] = 8-Week on carnosine 400 mg twice a day, n = 14, Mean (SD), vs baseline NS, vs placebo NS
[11] = Baseline, active carnosine group n = 14, Mean (SD)

In the case of `NCCCC(=O)N[C@@H](Cc1cnc[nH]1)C(=O)O` [homocarnosine, γ-Aminobutyryl-L-histidine], the “convulsions under hyperbaric oxygen” value [1] is given as “protects against the convulsions” and the rate of hydrolysis [2] is given as “negligible”.

For β-Alanlyl-L-histidine [carnosine], the audiogenic seizures [3] is given as “moderation of such seizures”, the “resistance towards ionizing radiation, hypobaric hypoxia, and supercooling” value [4] is given as “enhances the resistance” and the “amount of speech and language and level of maturity of speech” value [5] is given as “increased”. For the same compound, the cognitive processing speed [5] was “increase”, the language skills [5] was “increase” and the motor skills [5] was “improved”. The receptive language [5] was “improved”, the symptomatic side effects [6] was “no symptomatic side effects” and the “patients with improved seizure frequency (of 7)” value [7] was 7 patients. The “children with decreased frequency of polyspikes” value ([7]; 7 children) was 2 children, the “children with improved background and decreased electrographic slow-spike and wave activity” value ([7]; 7 children) was 2 children and the “children with improved secondarily generalized spike-wave activity” value ([7]; 7 children) was 1 child. The “children with no significant EEG changes” value ([7]; 7 children) was 2 children, the “children with documented improved EEG findings (of 7)” value ([7]; add-on) was 5 children and the “patients with reported improvements in global cognition, behavior, and language function (of 7)” value ([7]; not evaluated formally) was 7 patients. The CGI ([8]; 8-Week on carnosine 400 mg by mouth twice a day, n = 14, Mean (SD), vs baseline .06, vs placebo NS) was 16.39 (4.36), the GARS [8, 9] was 44.36 (14.94) and 44.35 (14.93) and the “GARS Socialization Scale” value [8, 9] was 13.36 (6.58). For the same compound, the “ROWPVT (age-adjusted)” value [8, 9] was 47.85 (28.37) and 47.86 (28.37), the “ROWPVT (raw)” value [8, 9] was 44.64 (26.56) and the “GARS Communication Scale” value ([8]; 8-Week on carnosine 400 mg twice a day, n = 14, Mean (SD), vs baseline .03, vs placebo NS) was 18.14 (6.27). For the same compound, the “GARS Behavior Scale” value ([8]; 8-Week on carnosine 400 mg twice a day, n = 14, Mean (SD), vs baseline .04, vs placebo NS) was 12.85 (5.95), the CARS ([8]; 8-Week on carnosine 400 mg twice a day, n = 14, Mean (SD), vs baseline .07, vs placebo NS) was 29.75 (7.53) and the “EOWPVT (age-adjusted)” value [8, 10] was 43.78 (28.22). For the same compound, the “EOWPVT (raw)” value [8, 10] was 37.28 (25.66), the CARS [8, 11] was 31.71 (6.55) and the CGI [8, 11] was 14.50 (3.65). The “EOWPVT (age-adjusted)” value [8, 11] was 40.71 (23.44), the “EOWPVT (raw)” value [8, 11] was 35.36 (20.87) and the GARS [8, 11] was 55.50 (16.35). The “GARS Behavior Scale” value [8, 11] was 15.71 (6.65), the “GARS Communication Scale” value [8, 11] was 21.64 (7.99) and the “GARS Socialization Scale” value [8, 11] was 18.14 (6.30). For the same compound, the “ROWPVT (age-adjusted)” value [8, 11] was 40.57 (24.55), the “ROWPVT (raw)” value [8, 11] was 38.00 (23.68) and the “side effects reported by parents” value ([8]; alleviated by decreasing the dose) was “only sporadic hyperactivity”. For the same compound, the “discontinuation of the study due to side effects” value ([8]; carnosine 400 mg twice a day, 8 weeks) was “Not a single child”, the “receptive speech, socialization, and behavior in children with autistic spectrum disorders” value ([8]; supplementation with carnosine, 8 weeks) was “significantly improve” and the “Fax ratings (week 2 vs. week 6)” value ([8]; week 2 (column Baseline)) was 2.03 (2.24). The “Fax ratings (week 2 vs. week 6)” value ([8]; week 6 (column 8-Week), vs week 2 .04) was 4.92 (5.69).

From patent publication US8354438B2, “Neurological functions” (priority 2001, dated 2013)
